Test results: US20250075235A1, “PRODUCTION OF ETHANOL WITH ONE OR MORE CO-PRODUCTS IN YEAST” (Braskem S.A., priority 2020, published 2025)

Experiments:
[1] = test system: industrial ethanol-producing yeast strain PE-2; assay: Alcohol tolerance experiment: sugar (glucose) consumption of yeast cultures with added alcohols; format: cell-based, Saccharomyces cerevisiae; details: for Sugar Consumption: PE-2, YNB medium, 40 g/L glucose, 32° C., 8-9 hours, no consumption = lethal concentration; for Toxicity related to ethanol (times more inhibition than ethanol): ratio of sugar consumption inhibition per unit of alcohol to that of ethanol; for Sugar consumption inhibition per unit of alcohol regarding the Control (+) condition (no alcohol added) / Slope (linear regression of sugar consumption inhibition against alcohol concentration): samples two hours after inoculation; for Slope (linear regression of sugar consumption inhibition against alcohol concentration): alcohol concentration in g/L
Experimental: An alcohol tolerance experiment was conducted to understand the negative effects of n-propanol (i.e., 1-propanol), 2-propanol, and 2-butanol compared to ethanol in Saccharomyces cerevisiae. Ethanol, which is a natural product (or native product) produced during sugar-ethanol fermentation is generally well-tolerated by yeast such as S. cerevisiae. However, existing approaches to produce non-natural chemicals such as C3, C4, or C5 alcohols, ketones, organic acids, or other non-natural products (e.g., alcohols other than ethanol) by using genetically modified yeast are usually impacted negatively by the higher toxicity compared to ethanol of such non-natural chemicals or alcohols (e.g., n-propanol and 2-propanol) to the yeast cell-growth and/or performance.
Several concentrations of n-propanol, 2-propanol, 2-butanol and ethanol was tested in yeast cultures. The experiment was conducted using the industrial ethanol-producing yeast strain PE-2 in a 250 mL shaken flask with 50 mL of YNB medium having 40g/L glucose at 32° C. The culture was conducted during 8-9 hours with an initial OD600 nm=12 (OD=optical density). Samples were taken in adequate intervals and analyzed by HPLC to measure glucose, ethanol, n-propanol, 2-propanol and 2-butanol. The experiment was performed according to the parameters in Table 13, in duplicate. The conditions at which no sugar consumption was observed were considered a lethal concentration and were excluded from the analysis.
The percentage of glucose consumption inhibition was assessed for various concentrations of alcohols. Samples were tested two hours after inoculation. At this point, glucose had not been totally consumed.

[2] = test system: industrial ethanol-producing yeast strain PE-2; assay: Laboratory simulation of yeast sugar-ethanol fermentation with exogenously added alcohols; format: cell-based, Saccharomyces cerevisiae; details: 1 L bioreactor, 224 g/L glucose, pH 4.5, 32° C., 70 hours; about 16 g alcohol added
Experimental: The experiment was performed using a 1 L bioreactor with 0.7 L as a final volume. The pH was controlled at 4.5 by adding NaOH 25% w/w, 32° C. temperature and 300 rpm stirring. The industrial ethanol-producing yeast strain used was PE-2, with an initial pitch of 0.7 g/L DWC and the culture medium was YNB without amino acids. The final sugar concentration was 224 g/L glucose. The experiment was performed under aseptic conditions. The bioreactor was first filled with 650 ml of YNB medium plus sugar, and after pH and temperature stabilization, a suspension of 50 mL with the yeast inoculum was added into the bioreactor. […] Each solution followed the profile: 10 hours since inoculation, 0.2 mL/min; from 11 hours to 15 hours, 0.4 mL/min; from 16 hours to 40 hours, 0.6 mL/min; and from 41 hours to 46 hours, 0.2 mL/min. This profile was added to simulate an ethanol production profile of PE-2 yeast. The fermentation was ended with 70 hours of fermentation run.

Row | Molecule | Sugar Consumption ([1]; alcohol 20 g/L) | Sugar Consumption ([1]; alcohol 40 g/L) | Sugar Consumption ([1]; alcohol 60 g/L) | Sugar Consumption ([1]; alcohol 80 g/L) | Toxicity related to ethanol (times more inhibition than ethanol) [1] | Sugar consumption inhibition per unit of alcohol regarding the Control (+) condition (no alcohol added) [1] | Slope (linear regression of sugar consumption inhibition against alcohol concentration) [1] | Ethanol produced [2] [g] | Ethanol yield [2] [g/g] | Volumetric productivity [2] [g/Lh] | Sugar Consumption ([1]; alcohol 120 g/L)
1 | 2-butanol | Yes | Yes | No | No | 2.94 | 1.82% per g · L^−1 of alcohol | 0.0182 | – | – | – | –
2 | CC(C)O [2-Propanol, isopropyl alcohol] | Yes | Yes | Yes | Yes | 1.45 | 0.90% per g · L^−1 of alcohol | 0.009 | – | – | – | –
3 | CCO [Condition 1, ethanol] | – | – | – | – | – | – | – | 80.9 | 0.5 | 1.4 | –
4 | CCO [Ethanol, ethanol] | Yes | Yes | Yes | Yes | – | 0.62% per g · L^−1 of alcohol | 0.0062 | – | – | – | Yes
5 | n-propanol | Yes | Yes | Yes | No | 2.16 | 1.34% per g · L^−1 of alcohol | 0.0134 | – | – | – | –
